Data taken from US4582822A, “Antibiotic A80190, pharmaceutical compositions containing same and method of use” (Eli Lilly and Company, priority 1984, dated 1986).
Values after ≈ are worked out from the molar mass of the structure shown. Values joined by “and” are separate entries in the source; they are usually repeats but may differ in a detail not shown here. Equal entries are not always repeated.

How the values were obtained:
A. macra = test: Resistance to antibiotics, sensitivity discs on seeded agar; format: cell-based, Actinomadura macra
Description: (§1) Resistance to antibiotics was measured by padding antibiotic sensitivity discs onto the surface of seeded ISP No. 2 agar plates.
(§2) Table III lists the resistance of the strain to various antibiotics at the concentrations indicated and compares it to that of A. macra.

NRRL 15878 = test: as above; format: cell-based, Actinomadura oligospora
Description: as §1, §2

[1] = tested on: Fusobacterium necrophorum 6054A; test: Agar-dilution MIC, anaerobic bacteria; format: cell-based; settings: 24-hour incubation
Treponema hyodysenteriae = test: Growth inhibition, swine dysentery agent; format: cell-based
pigweed = test: Herbicidal activity; format: in vivo; settings: 200 gpa; either pre-emergence or post-emergence
[2] = tested on: Bacteroides vulgatis 1211; test: Agar-dilution MIC, anaerobic bacteria; format: cell-based; settings: 24-hour incubation
Petococcus prevoti 1281 = test: Agar-dilution MIC, anaerobic bacteria; format: cell-based; settings: 24-hour incubation
adult housefly = test: Insecticidal activity; settings: in vivo
[3] = tested on: Peptostreptococcus intermedius 1624; test: Agar-dilution MIC, anaerobic bacteria; format: cell-based; settings: 24-hour incubation
two-spotted spider mite = test: Acaricidal activity; settings: in vivo
[4] = tested on: Peptostreptococcus anaerobius 1428; test: Agar-dilution MIC, anaerobic bacteria; format: cell-based; settings: 24-hour incubation
mustard = test: Herbicidal activity; format: in vivo; settings: 200 gpa; either pre-emergence or post-emergence
[5] = tested on: Eubacterium aerofaciens 1235; test: Agar-dilution MIC, anaerobic bacteria; format: cell-based; settings: 24-hour incubation
crabgrass = test: Herbicidal activity; format: in vivo; settings: 200 gpa; either pre-emergence or post-emergence
[6] = tested on: Peptococcus asaccharolyticus 1302; test: Agar-dilution MIC, anaerobic bacteria; format: cell-based; settings: 24-hour incubation
mosquito larvae = test: Insecticidal activity; settings: in vivo
blowfly larvae = test: Insecticidal activity; settings: in vivo
[7] = Ionophorous (ion-transport) activity with cations
Eimeria tenella = test: In vitro tissue culture screen, anticoccidial; format: cell-based; parameters: key: C: cytotoxic; A: active; S: slightly active; N: not active
Source text: Anticoccidial activity is an important property of the A80190 compounds. Table VIII summarizes the results of an in vitro tissue culture screen of A-80190 compounds vs. Eimeria tenella.

mitochondrial ATPase = test: Inhibition of mitochondrial ATPase in vitro; format: biochemical
Source text: In yet another aspect, the A80190 compounds are active as inhibitors of the enzyme ATPase. ATPase, an alkali-metal-sensitive enzyme found in cell membranes, is involved in the energy necessary for active transport. "Active transport" refers to the energy requiring series of operations whereby intracellular and extracellular fluids maintain their compositions. Inhibitors of ATPase reduce the energy required for active transport. In vitro tests have shown that A80190 inhibits mitochondrial ATPase with a half-effective concentration (IC50) of 0.5 μg/ml.

[8] = tested on: Clostridium perfringens 81; format: cell-based; settings: 24-hour incubation
Solubility = format: physicochemical
Source text: (§3) Antibiotic A80190 has been assigned structure 1 based on X-ray crystallographic studies. A80190 (in its free acid form) has the following characteristics: […]

[9] = tested on: Fusobacterium symbiosum 1470; test: Agar-dilution MIC, anaerobic bacteria; format: cell-based; settings: 24-hour incubation
Neurospora crassa = test: Disc-diffusion, zone of inhibition; format: cell-based; settings: 6-mm pads dipped in 1 mg/ml
Description: (§4) The inhibitory activity of A80190 is illustrated in Table VI. Activity was measured by the conventional disc-diffusion method (6-mm pads were dipped in solutions containing 1 mg of compound per ml of solution; pads were placed on agar plates seeded with test organism).

[10] = tested on: Saccharomyces pastorianus; test: Disc-diffusion, zone of inhibition; format: cell-based; settings: 6-mm pads dipped in 1 mg/ml
Description: as §4

Mycobacterium avium = test: Disc-diffusion, zone of inhibition; format: cell-based; settings: 6-mm pads dipped in 1 mg/ml
Description: as §4

Micrococcus luteus = test: Disc-diffusion, zone of inhibition; format: cell-based; settings: 6-mm pads dipped in 1 mg/ml
Description: as §4

Bacillus subtilis = test: Disc-diffusion, zone of inhibition; format: cell-based; settings: 6-mm pads dipped in 1 mg/ml
Description: as §4

Candida albicans = test: Disc-diffusion, zone of inhibition; format: cell-based; settings: 6-mm pads dipped in 1 mg/ml
Description: as §4

Staphylococcus aureus = test: Disc-diffusion, zone of inhibition; format: cell-based; settings: 6-mm pads dipped in 1 mg/ml
Description: as §4

Polio III virus = format: cell-based; settings: tissue culture
[11] = pKa in 66% aqueous dimethylformamide; format: physicochemical
Source text: as §3

[12] = tested on: Bacteroides fragilis 1877; test: Agar-dilution MIC, anaerobic bacteria; format: cell-based; settings: 24-hour incubation
Description: (§5) One important aspect of the antimicrobial activity of A80190 compounds relates to their activity against anaerobic bacteria. The minimal inhibitory concentrations (MIC's) at which A80190 inhibits various anaerobic bacteria, as determined by standard agar-dilution assay, are summarized in Table VII. End points were read after 24-hour incubation.

Bacteroides fragilis 111 = test: Agar-dilution MIC, anaerobic bacteria; format: cell-based; settings: 24-hour incubation
Description: as §5

[13] = tested on: Bacteroides melaninogenicus 1856/28; test: Agar-dilution MIC, anaerobic bacteria; format: cell-based; settings: 24-hour incubation
Description: as §5

[14] = tested on: Bacteroides thetaiotaomicron 1438; test: Agar-dilution MIC, anaerobic bacteria; format: cell-based; settings: 24-hour incubation
Description: as §5

[15] = tested on: Clostridium septicum 1128; test: Agar-dilution MIC, anaerobic bacteria; format: cell-based; settings: 24-hour incubation
Description: as §5

[16] = tested on: Clostridium difficile 2994; test: Agar-dilution MIC, anaerobic bacteria; format: cell-based; settings: 24-hour incubation
Description: as §5

[17] = tested on: Bacteroides corrodens 1874; test: Agar-dilution MIC, anaerobic bacteria; format: cell-based; settings: 24-hour incubation
Description: as §5

[18] = tested on: Bacteroides melaninogenicus 2736; test: Agar-dilution MIC, anaerobic bacteria; format: cell-based; settings: 24-hour incubation
Description: as §5

[19] = tested on: Bacteroides fragilis 1936B; test: Agar-dilution MIC, anaerobic bacteria; format: cell-based; settings: 24-hour incubation
Description: as §5

Mexican bean beetle = test: Insecticidal activity; settings: in vivo
Caenorhabditis elegans = test: Anthelmintic activity; settings: in vivo
[20] = tested on: natural and artificial membranes; test: Cation permeability of membranes
[21] = tested on: volatile-fatty-acid (VFA) production, rumen; test: Ruminant feed-utilization efficiency, VFA ratio treated/control flasks
Source text: The efficiency of feed use can be monitored by observing the production and concentration of propionate compounds in the rumen using the method described by Arthur P. Raun in U.S. Pat. No. 3,794,732 (see especially Example 5).

[22] = tested on: Propionibacterium acnes 79; test: Agar-dilution MIC, anaerobic bacteria; format: cell-based; settings: 24-hour incubation
southern armyworm = test: Insecticidal activity; settings: in vivo

## NC[C@H]1O[C@H](O[C@H]2[C@H](O)[C@@H](O[C@H]3O[C@H](CO)[C@@H](O)[C@H](N)[C@H]3O)[C@H](N)C[C@@H]2N)[C@H](N)C[C@@H]1O [Tobramycin]
A. macra; 10 μg
  Resistance to Antibiotics: -

## Oleandomycin
NRRL 15878; 15 μg
  Resistance to Antibiotics: -

## CCC[C@@H]1C[C@@H](C(=O)N[C@@H]([C@H]2O[C@H](SC)[C@H](O)[C@@H](O)[C@H]2O)[C@@H](C)O)N(C)C1 [Lincomycin]
A. macra; 2 μg
  Resistance to Antibiotics: +

## CC[C@@H](O)[C@]1(C)C[C@H](C)[C@@](O)([C@H]2C[C@H](C)[C@H]([C@]3(C)C[C@@H](O[C@H]4CC[C@H](OC)[C@@H](C)O4)[C@H]([C@@H]4CC[C@@]5(O[C@H]([C@@H](C)[C@@H](OC)[C@H](C)C(=O)O)[C@H](C)[C@@H](OC)[C@H]5C)O4)O3)O2)O1 [A80190]
[1]
  MIC: 16 µg/mL (≈ 19.3 µM)
Treponema hyodysenteriae
  inhibits the growth at levels as low as: 0.39 µg/mL
pigweed
  active at (application rate): 2 lb/acre
[2]
  MIC: 16 µg/mL (≈ 19.3 µM)
Petococcus prevoti 1281
  MIC: < 0.5 µg/mL
Adult housefly
  active at levels as low as: 35 ppm
[3]
  MIC: 1 µg/mL (≈ 1.21 µM)
two-spotted spider mite
  active when applied at a rate as low as: 25 ppm
[4]
  MIC: 1 µg/mL (≈ 1.21 µM)
mustard
  active at (application rate): 2 lb/acre
[5]
  MIC: < 0.5 µg/mL
crabgrass
  active at (application rate): 2 lb/acre
[6]
  MIC: 1 µg/mL (≈ 1.21 µM)
Mosquito larvae
  active at levels as low as: < 50 ppm
Blowfly larvae
  active at levels as low as: 35 ppm
[7]; 0.2 μg/ml, Cs+ vs Na+
  ionophorous effect, cation preference: even greater ionophorous effect with Cs^+ than with Na^+ as cation
[7]; 0.5 μg/ml
  ionophorous activity: showed ionophorous activity
[7]; 0.5 μg/ml, Na+, K+ and Rb+ vs Cs+ or Li+
  ionophorous activity, cation preference: activity with Na^+, K^+ and Rb^+ was better than that with Cs^+ or Li^+
Eimeria tenella; 0.008 μg/ml
  Activity vs. Eimeria tenella In Vitro: A
Eimeria tenella; 0.04 μg/ml
  Activity vs. Eimeria tenella In Vitro: A
Eimeria tenella; 0.2 μg/ml
  Activity vs. Eimeria tenella In Vitro: A
Eimeria tenella; 1 μg/ml
  Activity vs. Eimeria tenella In Vitro: C
Eimeria tenella; 5 μg/ml
  Activity vs. Eimeria tenella In Vitro: C
Mitochondrial ATPase
  half-effective concentration (IC50): 0.5 µg/mL
[8]
  MIC: < 0.5 µg/mL
Solubility; organic solvents
  Solubility: soluble in lower alcohols such as methanol, ketones such as acetone, esters such as ethyl acetate, halogenated hydrocarbons such as chloroform and hydrocarbons such as diethyl ether, benezene, toluene and warm hexane
Solubility; water
  Solubility: Insoluble in water
[9]
  MIC: 8 µg/mL (≈ 9.65 µM)
Neurospora crassa
  Zone of Inhibition: 14 mm diameter
[10]
  Zone of Inhibition: 10 mm diameter
Mycobacterium avium
  Zone of Inhibition: 21 mm diameter
Micrococcus luteus
  Zone of Inhibition: 20 mm diameter
Bacillus subtilis
  Zone of Inhibition: 23 mm diameter
Candida albicans
  Zone of Inhibition: 14 mm diameter
Staphylococcus aureus
  Zone of Inhibition: 17 mm diameter
Polio III virus
  active at a level of: 2000 µg/mL
[11]
  pKa: 6.2
[12]
  MIC: > 128 µg/mL
Bacteroides fragilis 111
  MIC: > 128 µg/mL
[13]
  MIC: > 128 µg/mL
[14]
  MIC: > 128 µg/mL
[15]
  MIC: < 0.5 µg/mL
[16]
  MIC: < 0.5 µg/mL
[17]
  MIC: > 128 µg/mL
[18]
  MIC: > 128 µg/mL
[19]
  MIC: > 128 µg/mL
Mexican bean beetle
  active at levels as low as: < 100 ppm
Caenorhabditis elegans
  active at levels as low as: 20 ppm
[20]
  cation permeability: alters the cation permeability of both natural and artificial membranes
[21]; 0.3 mcg/ml
  Molar % Acetate (ratio treated/control): 0.970
  Molar % Butyrate (ratio treated/control): 0.819
  Molar % Propionate (ratio treated/control): 1.220
  Total VFA/Control VFA: 0.967 mM/L
[21]; 1 mcg/ml
  Molar % Acetate (ratio treated/control): 0.986 and 0.892 and 1.016 and 0.926
  Molar % Butyrate (ratio treated/control): 0.851 and 0.813 and 0.706 and 0.529
  Molar % Propionate (ratio treated/control): 1.185 and 1.403 and 1.247 and 1.566
  Total VFA/Control VFA: 0.916 mM/L and 0.887 mM/L and 0.857 mM/L and 0.913 mM/L
[21]; 3 mcg/ml
  Molar % Acetate (ratio treated/control): 0.998
  Molar % Butyrate (ratio treated/control): 0.611
  Molar % Propionate (ratio treated/control): 1.368
  Total VFA/Control VFA: 0.963 mM/L
[22]
  MIC: 1 µg/mL (≈ 1.21 µM)
Southern armyworm
  active at levels as low as: < 100 ppm

## NC[C@@H]1O[C@H](O[C@H]2[C@@H](O)[C@H](O[C@@H]3[C@@H](O)[C@H](N)C[C@H](N)[C@H]3O[C@H]3O[C@H](CN)[C@@H](O)[C@H](O)[C@H]3N)O[C@@H]2CO)[C@H](N)[C@@H](O)[C@@H]1O [Neomycin]
NRRL 15878; 30 μg
  Resistance to Antibiotics: -
A. macra; 30 μg
  Resistance to Antibiotics: -
